Legend:
Format in all cases: functional
NCI-H226 = assay: cells; conditions: Homo sapiens, time 24-72 hrs
Description: Antiproliferative activity against human NCI-H226 cells assessed as inhibition of cell growth at 10 uM measured after 24 to 72 hrs by SRB method relative to control

HOP-62 = assay: Antiproliferative activity against human HOP-62 cells assessed as inhibition of cell growth at 10 uM measured after 24 to 72 hrs by SRB method relative to control; conditions: time 24-72 hrs
NCI-H23 = assay: cells; conditions: Homo sapiens, time 24-72 hrs
Description: Antiproliferative activity against human NCI-H23 cells assessed as inhibition of cell growth at 10 uM measured after 24 to 72 hrs by SRB method relative to control

NCI-H522 = assay: Antiproliferative activity against human NCI-H522 cells assessed as inhibition of cell growth at 10 uM measured after 24 to 72 hrs by SRB method relative to control; conditions: time 24-72 hrs
A549 = assay: cells; conditions: Homo sapiens, time 24-72 hrs
Description: Antiproliferative activity against human A549 cells assessed as inhibition of cell growth at 10 uM measured after 24 to 72 hrs by SRB method relative to control

NCI-H460 = assay: cells; conditions: Homo sapiens, time 24-72 hrs
Description: Antiproliferative activity against human NCI-H460 cells assessed as inhibition of cell growth at 10 uM measured after 24 to 72 hrs by SRB method relative to control

HOP-92 = assay: cells; conditions: Homo sapiens, time 24-72 hrs
Description: Antiproliferative activity against human HOP-92 cells assessed as inhibition of cell growth at 10 uM measured after 24 to 72 hrs by SRB method relative to control

NCI-H322M = assay: Antiproliferative activity against human NCI-H322M cells assessed as inhibition of cell growth at 10 uM measured after 24 to 72 hrs by SRB method relative to control; conditions: time 24-72 hrs
EKVX = assay: cells; conditions: Homo sapiens, time 24-72 hrs
Description: Antiproliferative activity against human EKVX cells assessed as inhibition of cell growth at 10 uM measured after 24 to 72 hrs by SRB method relative to control

SR = assay: Antiproliferative activity against human SR cells assessed as inhibition of cell growth at 10 uM by measured after 24 to 72 hrs SRB method relative to control; conditions: time 24-72 hrs
MOLT-4 = assay: Antiproliferative activity against human MOLT-4 cells assessed as inhibition of cell growth at 10 uM measured after 24 to 72 hrs by SRB method relative to control; conditions: time 24-72 hrs
RPMI-8226 = assay: Antiproliferative activity against human RPMI-8226 cells assessed as inhibition of cell growth at 10 uM measured after 24 to 72 hrs by SRB method relative to control; conditions: time 24-72 hrs
HL-60 = assay: Antiproliferative activity against human HL-60 cells assessed as inhibition of cell growth at 10 uM measured after 24 to 72 hrs by SRB method relative to control; conditions: time 24-72 hrs
CCRF-CEM = assay: Antiproliferative activity against human CCRF-CEM cells assessed as inhibition of cell growth at 10 uM measured after 24 to 72 hrs by SRB method relative to control; conditions: time 24-72 hrs
K562 = assay: Antiproliferative activity against human K562 cells assessed as inhibition of cell growth at 10 uM measured after 24 to 72 hrs by SRB method relative to control; conditions: time 24-72 hrs
MDA-MB-435 = assay: Growth inhibition of human MDA-MB-435 cells measured after 24 to 72 hrs by SRB method; conditions: time 24-72 hrs
SK-MEL-28 = assay: Growth inhibition of human SK-MEL-28 cells measured after 24 to 72 hrs by SRB method; conditions: time 24-72 hrs
PC-3 = assay: Growth inhibition of human PC-3 cells measured after 24 to 72 hrs by SRB method; conditions: time 24-72 hrs
DU-145 = assay: Growth inhibition of human DU-145 cells measured after 24 to 72 hrs by SRB method; conditions: time 24-72 hrs

SMILES	inhibition at 10 µM (NCI-H226) [%]	inhibition at 10 µM (HOP-62) [%]	inhibition at 10 µM (NCI-H23) [%]	inhibition at 10 µM (NCI-H522) [%]	inhibition at 10 µM (A549) [%]	inhibition at 10 µM (NCI-H460) [%]	inhibition at 10 µM (HOP-92) [%]	inhibition at 10 µM (NCI-H322M) [%]	inhibition at 10 µM (EKVX) [%]	inhibition at 10 µM (SR) [%]	inhibition at 10 µM (MOLT-4) [%]	inhibition at 10 µM (RPMI-8226) [%]	inhibition at 10 µM (HL-60) [%]	inhibition at 10 µM (CCRF-CEM) [%]	inhibition at 10 µM (K562) [%]	GI50 (MDA-MB-435) [µM]	GI50 (SK-MEL-28) [µM]	GI50 (PC-3) [µM]	GI50 (DU-145) [µM]
COc1cc2c(c(OC)c1OC)CCC(c1cccc(C(=O)NC(C)C)c1)O2 (stereo not drawn)	16.4	1.41	6.78	17	1.14	2.47	19.7	4.16											
COc1cc2c(c(OC)c1OC)CCC(c1cccc(NC(=O)c3ccccc3)c1)O2 (stereo not drawn)	19.8	1.13	15.6	24.3	19.5		5.1	5.18											
COc1cc2c(c(OC)c1OC)CCC(c1cccc(NC(=O)c3cccc(Cl)c3)c1)O2 (stereo not drawn)	20.2	7.17	7.27	37.9	15	3.06	16.9	9.74	14.1										
COc1ccc(C(=O)Nc2cccc(C3CCc4c(cc(OC)c(OC)c4OC)O3)c2)cc1 (stereo not drawn)	69.9	60.2	41.1	57.3	56.6	74.3	38.7	24.1	45.3	> 60	> 60	> 60	> 60	> 60	> 60				
COc1cc2c(c(OC)c1OC)CCC(c1cccc(NC(=O)c3ccc(C#N)cc3)c1)O2 (stereo not drawn)	28.8	21.8	28.1	42.8	29.4	5.83	10.6	11.1	29										
COc1ccccc1C(=O)Nc1cccc(C2CCc3c(cc(OC)c(OC)c3OC)O2)c1 (stereo not drawn)	8.5	4.59	0.42	19.7	11.7	2.38	4.05	3.14	2.25										
COc1cc2c(c(OC)c1OC)CCC(c1cccc(NC(=O)c3ccccc3Br)c1)O2 (stereo not drawn)	14.6	2.7	5.1	20.7	13.8		8.39	6.37	7.82										
COc1cc2c(c(OC)c1OC)CCC(c1cccc(NC(=O)c3ccc(Br)cc3)c1)O2 (stereo not drawn)	27.6	12.8	19.9	25.4	32.6	6.47	41.5	24.9	22.8										
COc1cc2c(c(OC)c1OC)CCC(c1cccc(C(=O)Nc3ccccc3)c1)O2 (stereo not drawn)	25.6	6.18	15.3	38	15.8	12.2	77.9	41.1	9.05										
COc1cc2c(c(OC)c1OC)CCC(c1cccc(C(=O)Nc3ccccc3Br)c1)O2 (stereo not drawn)	7.74	7.73	2.79	19.9	18.9		33.7	5.11	9.92										
COc1cc2c(c(OC)c1OC)CCC(c1cccc(NC(=O)c3cccc(Br)c3)c1)O2 (stereo not drawn)	6.31	0.21	4.86	19	18.8		6.02	1.51	15.4										
CN(C)/N=N/c1[nH]cnc1C(N)=O [DACARBAZINE]																84.3	> 100		
CNC(=O)c1ccc(N2C(=S)N(c3ccc(C#N)c(C(F)(F)F)c3)C(=O)C2(C)C)cc1F [ENZALUTAMIDE]																		22	> 31

Reference: ChEMBL document CHEMBL5390198, “Scaffold hopping of N-benzyl-3,4,5-trimethoxyaniline: 5,6,7-Trimethoxyflavan derivatives as novel potential anticancer agents modulating hippo signaling pathway” (2023)
